Test results reported in patent US12241094B2, “Phenazine degrading agents and related compositions, methods and systems for interfering with viability of bacteria” (priority 2016, dated 2025).
Like-named read-outs stand apart in the source and are kept apart here. Marks after values point to notes of the source that are not given here.

Tests used:
[1] = tested on: P. aeruginosa planktonic culture; assay: Phenazines in planktonic P. aeruginosa cultures (HPLC); type: cell-based; details: 24 hours
Excerpt: Product was cut with DpnI to remove WT vector, phosphorylated with T4 polynucleotide kinase, and ligated to generate a circular mutant protein expression construct. For D72N and Y156F mutants, DNA fragments encoding the mutation were synthesized (Integrated DNA Technologies) and cloned into pET-20b(+) as for the wild type sequence. Enzymes for cloning were purchased from New England Biolabs. Constructs were transferred to E. coli BL21(DE3) for expression. All mutations were confirmed by Sanger sequencing (Laragen and Retrogen). When necessary, 100 μg mL^−1 carbenicillin was included in all growth media to maintain selection for the plasmid. To measure the effect of PodA30-162 on phenazine production in planktonically grown P. aeruginosa, cultures were grown overnight in 5 mL volumes of tryptic soy broth (TSB) or succinate minimal medium (arginine medium recipe from Glasser et al., 2014 with 40 mM sodium succinate in place of arginine) (3) in the presence 1 μg mL^−1 PodA30-162. Cells were removed by centrifugation and supernatants were analyzed by HPLC as previously described (9). See below for a description of biofilm growth of P. aeruginosa PA14. To induce protein expression, an overnight culture was inoculated 1/1000 in Terrific Broth (BD Difco). Cultures were grown in baffled Erlenmeyer flasks (1 L culture per 3 L flask) at 37° C. with 150 rpm agitation in a shaking incubator (Innova 44 shaking incubator, New Brunswick). After 3-4 hours, the temperature was changed to 16° C. and cultures were induced with 50 μM (final concentration) IPTG and left to incubate overnight. Cells were then pelleted by centrifugation, flash frozen in liquid N2, and stored at −80° C. for up to 1 month before protein purification.

[2] = Kidani 1958; cited from earlier work
P. aeruginosa biofilm [3] = assay: Optical density of P. aeruginosa biofilm; type: cell-based; details: PodA vs inactive E154A; 1-OH-PHZ vs 1% DMSO
P. aeruginosa biofilm [4] = assay: Microcolony number and size in 5 hour biofilms on succinate minimal medium; type: cell-based; details: 100 μM 1-OHPHZ or 0.5 μg mL-1 PodA
Excerpt: FIGS. 24A-C show charts and images illustrating results of exemplary experiments showing that PodA and 1-OH-PHZ inhibit the early stages of P. aeruginosa biofilm formation on succinate minimal medium. […] Numbers are averages and SD from 8 biological replicates.

PA14 [5] = assay: Reduction of redox-active compounds by PA14 (Table 1); type: cell-based, P. aeruginosa
[6] = tested on: Pa PA14 biofilm transcriptome; assay: RNASeq transcriptome of biofilm cultures; type: cell-based, P. aeruginosa; details: 5 h
Experimental: Because 1-OH-PHZ induces iron starvation in A. fumigatus (Briard et al. (2015) Scientific Reports. 2015; 5), it was speculated that the abrogation of biofilm development in P. aeruginosa grown in the presence of either PodA or 1-OH-PHZox may be mediated by a response to Fe-limitation. To test this idea, changes to the transcriptome of Pa PA14 by RNASeq were assessed. After 5 h of incubation in the presence of PodA (1 μM), 1-OH-PHZ (200 μM) or PYO (200 μM), RNA was prepared from 1 ml of biofilm cultures (250 μl pooled from 4 static biofilm chambers) for analysis on an Illumina HiSeq 2500 sequencer at the Millard and Muriel Jacobs Genetics and Genomics Laboratory, as previously described (Babin et al. (2016) Proc Natl Acad Sci USA. 113(5):E597-E605; Kreamer et al. (2015) M Bio. 2015; 6(2):e02549. Epub 2015/02/26). This experiment was designed to identify genes that were likely to be specifically affected by PodA's transformation of PYO to 1-OH-PHZ under a condition that inhibited biofilm formation (FIG. 20A). As a reference for genes responsive to iron availability, these transcriptomes were compared to those previously found to respond to Fe(II) shock (Kreamer et al. (2015) M Bio. 2015; 6(2):e02549. Epub 2015/02/26).

Pa PA14 biofilm = assay: Biofilm biomass by DAPI intensity (Example 7); type: cell-based, P. aeruginosa
Experimental: In this example, to check for an effect of PodA or 1-OH-PHZ on biofilm development, Pa PA14 was grown in 8-well chambered microscope slides designed for biofilm imaging, as previously reported (Das et al. (2015) Sci Rep. 5:8398). Overnight cultures of Pa PA14 were diluted to a starting optical density of 0.25 and grown directly on the slides (volume of 250 μl per chamber). After 5 h incubation at 37° C., planktonic cells were rinsed from the slide and remaining cells were stained with DAPI. Biofilm biomass was quantified by DAPI intensity on a Leica confocal microscope, with LAS X software. Pa PA14 incubated in the presence of 1 μM PodA or 100 μM 1-OHPHZox had ˜50% the biofilm biomass of Pa PA14 alone (FIG. 20A).

PA14 [7] = assay: Redox cycles over 7 days and support of survival (Table 1); type: cell-based, P. aeruginosa
[8] = oxidized form, values from references a, c, d; cited from earlier work
[9] = Redox potential E0' (vs. NHE) of redox-active compounds; type: physicochemical; details: measured in aqueous solution at pH 7 in this study (footnote b)
P. aeruginosa Δphz = details: 25 μM PYO; images from Ramos et al., 2010; cited from earlier work
S. oneidensis MR1 = details: 100 μM PYO vs absence of PYO; cited from earlier work
[10] = PYO's hydroxyl group; cited from earlier work
S. aureus MN8 = details: 100 μM PYO vs absence of PYO; cited from earlier work
E. coli DH5α = details: 100 μM PYO vs absence of PYO; cited from earlier work
Pa PA14 biofilms = assay: Tobramycin tolerance of Pa PA14 biofilms; type: cell-based, P. aeruginosa
Experimental: In varying the amount of added 1-OH-PHZox, it was observed a dose-dependent response: the greater the [1-OHPHZox], the greater the biofilm inhibition, yet, under these conditions, saturating at 200 μM (FIG. 20B). To set the stage for flow-cell experiments to explore PodA and 1-OH-PHZ effects on biofilm inhibition and biofilm dissolution, the time course for biofilm development was mapped for Pa PA14 constitutively expressing YFP under constant flow in a minimal medium (FIG. 20C) as previously described (Wang et al. (2011) J Bacteriol. 193(14):3606-17). In addition, an appropriate initial tobramycin concentration to use in Pa PA14 biofilm experiments was also identified to test the hypothesis that PodA or 1-OH-PHZ can sensitize biofilms to antibiotics: Pa PA14 biofilms tolerate 20 μg/ml, 10× the MIC for tobramycin for planktonic cultures, similar to what has been reported for biofilms of Pa PAO1 (Bjarnsholt et al. (2005) Microbiol-Sgm. 2005; 151:373-83).

SMILES: Oc1cccc2nc3ccccc3nc12 [1-OH-PHZ, 1-Hydroxyphenazine]
- production of PYO ([1]; minimal medium with succinate): negative impact
- phenazine production ([1]; tryptic soy broth): changes to the concentrations of all four phenazines
- log of the equilibrium constant βmlh of binding copper [2]: 8.68
- optical density of biofilm (P. aeruginosa biofilm [3]): not significantly different
- microcolony diameter (P. aeruginosa biofilm [4]): does decrease
- number of microcolonies formed (P. aeruginosa biofilm [4]; vs inactive E154A): does not significantly affect
- Reduction by PA14? (PA14 [5]): Yes
- upregulation of genes in iron responsive pathways ([6]; 200 μM): 2-10 fold
- expression of small gene cluster incl. QapR regulon [6]: upregulated modestly
- biofilm biomass relative to Pa PA14 alone (Pa PA14 biofilm; 1 μM PodA or 100 μM 1-OHPHZox, 5 h at 37° C): ~50%
- biofilm formation compared to untreated control (Pa PA14 biofilm; PodA 1 μM, 1-OH-PHZ 100 μM, total DAPI staining): inhibit biofilm formation
- concentration at which biofilm inhibition saturates (Pa PA14 biofilm; dose-dependent response): 200 µM
- # of Redox cycles over 7 days (PA14 [7]): 14
- Support survival? (PA14 [7]): Yes
- E^0, (vs. NHE) [8]: −174^a mV

SMILES: O=C(O)Cc1cc(O)ccc1O [Homogentisic acid (HMA), Homogentisic acid]
- E^0, (vs. NHE) [9]: +306^b mV
- # of Redox cycles over 7 days (PA14 [7]): No cycle
- Support survival? (PA14 [7]): No

SMILES: CN(C)c1ccc2nc3ccc(=[N+](C)C)cc-3sc2c1 [Methylene blue (MB), Methylene blue]
- Reduction by PA14? (PA14 [5]): Yes
- E^0, (vs. NHE) [9]: 0 mV
- # of Redox cycles over 7 days (PA14 [7]): 3
- Support survival? (PA14 [7]): No
- E^0, (vs. NHE) [8]: +11 mV

SMILES: Cn1c2cccc(=O)c-2nc2ccccc21 [PYO, Pyocyanin]
- biofilm production of Δphz (P. aeruginosa Δphz): restored
- Reduction by PA14? (PA14 [5]): Yes
- log(2) changes relative to untreated control, metal scavenging and starvation response genes (FIG. 21A) ([6]; PodA 1 μM, 1-OH-PHZ 200 μM, PYO 200 μM): ~0 log(2)
- colony growth (S. oneidensis MR1): decreased colony growth
- pKa [10]: ~5
- # of Redox cycles over 7 days (PA14 [7]): 31
- Support survival? (PA14 [7]): Yes
- colony growth (S. aureus MN8): decreased colony growth
- E^0, (vs. NHE) [8]: −40^a mV
- colony growth (E. coli DH5α): decreased colony growth

SMILES: NC[C@H]1O[C@H](O[C@H]2[C@H](O)[C@@H](O[C@H]3O[C@H](CO)[C@@H](O)[C@H](N)[C@H]3O)[C@H](N)C[C@@H]2N)[C@H](N)C[C@@H]1O [tobramycin]
- tobramycin concentration tolerated by biofilms (Pa PA14 biofilms): 20 µg/mL
- tolerated concentration relative to MIC for planktonic cultures (Pa PA14 biofilms): 10 × the MIC
